6 compounds from PMC9716094, “Synthesis of novel amidines via one-pot three component reactions: Selective topoisomerase I inhibitors with antiproliferative properties” (Frontiers in Chemistry, 2022) can be followed below.

In data set [1] the target is T1, recombinant human DNA topo I (Homo sapiens, UniProt P11387).
T1 construct: purchased Topo GEN INC., USA
T1 sequence (P11387 1-765): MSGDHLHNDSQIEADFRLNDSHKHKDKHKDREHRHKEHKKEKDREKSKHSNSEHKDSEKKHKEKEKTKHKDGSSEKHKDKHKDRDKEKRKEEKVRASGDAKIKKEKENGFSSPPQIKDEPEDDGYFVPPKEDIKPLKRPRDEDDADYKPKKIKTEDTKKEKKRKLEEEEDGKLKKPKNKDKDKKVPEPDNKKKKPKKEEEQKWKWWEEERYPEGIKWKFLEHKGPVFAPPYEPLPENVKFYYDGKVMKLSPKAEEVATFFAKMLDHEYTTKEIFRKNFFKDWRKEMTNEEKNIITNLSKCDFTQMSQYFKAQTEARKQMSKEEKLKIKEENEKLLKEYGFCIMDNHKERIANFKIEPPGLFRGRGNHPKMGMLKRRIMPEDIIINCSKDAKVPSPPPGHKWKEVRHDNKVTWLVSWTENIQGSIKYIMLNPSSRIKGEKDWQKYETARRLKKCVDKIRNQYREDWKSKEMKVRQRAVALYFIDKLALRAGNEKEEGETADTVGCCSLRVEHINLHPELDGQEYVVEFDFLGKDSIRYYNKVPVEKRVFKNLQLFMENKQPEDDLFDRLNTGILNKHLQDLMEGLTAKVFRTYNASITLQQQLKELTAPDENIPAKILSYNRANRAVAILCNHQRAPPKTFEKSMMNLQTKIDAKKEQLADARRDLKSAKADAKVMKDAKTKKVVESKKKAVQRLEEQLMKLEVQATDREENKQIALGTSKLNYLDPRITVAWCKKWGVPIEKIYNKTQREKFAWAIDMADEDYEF
Nature of the data set: Topo I inhibitory assay (pBR322 relaxation). It is filed as biochemical. As to the method: (§1) All the tested compounds were dissolved in DMSO and the DNA topoisomerase I and II inhibitory activity of each compound was measured as follows according to previously reported methods. Mixture comprising of 100 ng supercoiled pBR322 plasmid DNA (Thermo Scientific, USA) and 0.2 ~ 1 unit of recombinant human DNA topo I (Topo GEN INC., USA) or topo IIα (USB Corp., USA) was incubated with or without the prepared compounds in the assay buffer (For topo I, 10 mM Tris-HCl (pH 7.9), 150 mM NaCl and 0.1% BSA, 0.1 mM spermidine and 5% glycerol; for topo II, 10 mM Tris-HCl (pH 7.9), 50 mM NaCl, 50 mM KCl, 5 mM MgCl2, 1 mM EDTA, 1 mM ATP and […] BSA) for 30 min at 37 ◦C. The reaction with final volume of 10 μL was stopped by adding the topo stop buffer (For topo I, 10% SDS solution containing 0.2% bromophenol blue, 0.2% xylene cyanol and 30% glycerol; for topo II, 7 mM EDTA). The reaction products were electrophoresed on 0.8% agarose gel at 50 V for 1 h with TAE electrophoresis buffer. The gels were stained in an EtBr solution (0.5 mg/mL) and visualized by transillumination with UV light and were quantitated using Alpha Tech ImagerTM (Alpha Innotech Corp., USA).

Data set [2] deals with T2, topo IIα (Homo sapiens, UniProt P11388).
T2 construct: purchased USB Corp., USA
T2 sequence (P11388 whole entry): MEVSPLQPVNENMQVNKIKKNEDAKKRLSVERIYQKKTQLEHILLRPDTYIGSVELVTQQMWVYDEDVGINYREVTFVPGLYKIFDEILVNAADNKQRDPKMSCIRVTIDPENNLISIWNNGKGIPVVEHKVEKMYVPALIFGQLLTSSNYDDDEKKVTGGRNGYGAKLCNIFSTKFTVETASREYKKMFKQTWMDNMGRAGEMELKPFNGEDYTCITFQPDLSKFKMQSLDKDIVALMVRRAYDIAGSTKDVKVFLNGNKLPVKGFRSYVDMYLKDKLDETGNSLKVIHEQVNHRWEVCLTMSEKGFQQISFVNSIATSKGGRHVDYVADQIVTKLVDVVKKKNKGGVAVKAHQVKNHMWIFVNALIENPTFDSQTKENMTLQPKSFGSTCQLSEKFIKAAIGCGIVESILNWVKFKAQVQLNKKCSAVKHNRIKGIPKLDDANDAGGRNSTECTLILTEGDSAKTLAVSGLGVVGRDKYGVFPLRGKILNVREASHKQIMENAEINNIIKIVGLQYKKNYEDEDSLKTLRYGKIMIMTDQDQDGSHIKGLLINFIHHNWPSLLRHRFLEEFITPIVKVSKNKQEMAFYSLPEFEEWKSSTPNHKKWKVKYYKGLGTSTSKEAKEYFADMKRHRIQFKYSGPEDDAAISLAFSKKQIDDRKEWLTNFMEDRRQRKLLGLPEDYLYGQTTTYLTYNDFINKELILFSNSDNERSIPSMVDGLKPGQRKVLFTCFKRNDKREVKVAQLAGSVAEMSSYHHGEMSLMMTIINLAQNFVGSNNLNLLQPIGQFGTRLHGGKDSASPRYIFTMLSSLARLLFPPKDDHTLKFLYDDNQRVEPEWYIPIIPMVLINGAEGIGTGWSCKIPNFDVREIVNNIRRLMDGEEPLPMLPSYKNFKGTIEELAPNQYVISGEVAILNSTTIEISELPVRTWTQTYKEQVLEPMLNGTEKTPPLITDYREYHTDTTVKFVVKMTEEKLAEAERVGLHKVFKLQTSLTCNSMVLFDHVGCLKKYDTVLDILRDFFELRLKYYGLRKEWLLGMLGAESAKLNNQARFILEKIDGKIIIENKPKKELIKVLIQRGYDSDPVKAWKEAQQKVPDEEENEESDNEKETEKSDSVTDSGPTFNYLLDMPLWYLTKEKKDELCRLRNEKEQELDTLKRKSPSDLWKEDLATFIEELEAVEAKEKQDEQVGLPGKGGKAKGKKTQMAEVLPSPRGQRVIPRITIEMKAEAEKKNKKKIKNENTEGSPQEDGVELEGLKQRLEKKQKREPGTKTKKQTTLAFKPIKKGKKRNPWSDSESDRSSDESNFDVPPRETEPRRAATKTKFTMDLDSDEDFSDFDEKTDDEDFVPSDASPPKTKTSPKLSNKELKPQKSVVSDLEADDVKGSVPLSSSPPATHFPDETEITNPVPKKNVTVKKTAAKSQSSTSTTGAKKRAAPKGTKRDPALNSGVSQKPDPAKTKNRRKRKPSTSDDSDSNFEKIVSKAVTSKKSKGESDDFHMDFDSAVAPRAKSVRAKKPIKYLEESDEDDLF
The data set can be described thus: Topo IIα inhibitory assay (pBR322 relaxation). It counts as biochemical. As to the method:
as §1

For data set [3], the system named is Panc-1 (pancreas cancer cell line). Nature of the data set: Antiproliferative assay, Panc-1. It counts as cell-based. Particulars: Homo sapiens, read-out: Antiproliferative activity IC50 ± SEM, Panc-1. An excerpt:
(§2) See Supplementary Appendix S1A.
(§3) DMSO (0.1%) was used as control.

In data set [4] the test system is four cancer cell lines (A-549, MCF-7, Panc-1, HT-29). Nature of the data set: Antiproliferative assay, average over the four cancer cell lines (GI50). Particulars: read-out: Antiproliferative activity IC50, Average (mean GI50).
Description: (§4) The IC50 of each compound was calculated using doxorubicin as the reference.
(§5) To explore the antiproliferative potential of compounds MTT assay was performed according to previously reported procedure using different cell lines to explore the antiproliferative potential of compounds propidium iodide fluorescence assay was performed using different cell lines. To calculate the total nuclear DNA, a fluorescent dye (propidium iodide, PI) is used which can attach to the DNA, thus offering a quick and precise technique. PI cannot pass through the cell membrane and its signal intensity can be considered as directly proportional to quantity of cellular DNA. Cells whose cell membranes are damaged or have changed permeability are counted as dead ones. The assay was performed by seeding the cells of different cell lines at a density of 3000-7500 cells/well (in 200µl medium) in culture plates followed by incubation for 24h at 37 °C in humidified 5% CO2/95% air atmospheric conditions. The medium was removed; the compounds were added to the plates at 10 µM concentrations (in 0.1% DMSO) in triplicates, followed by incubation for 48 h. DMSO (0.1%) was used as control. After incubation, medium was removed followed by the addition of PI (25 µl, 50µg/mL in water/medium) to each well of the plates. At -80 °C, the plates were allowed to freeze for 24 h, followed by thawing at 25 °C. A fluorometer (Polar-Star BMG Tech) was used to record the readings at excitation and emission wavelengths of 530 and 620 nm for each well. The percentage cytotoxicity of compounds was calculated using the following formula:
Data set [5] deals with HT-29 (colon cancer cell line). Nature of the data set: Antiproliferative assay, HT-29. The note with it: Homo sapiens, HT-29, read-out: Antiproliferative activity IC50 ± SEM, HT-29.
Description: as §4, §5
Data set [6] relates to A-549 (epithelial cancer cell line). Nature of the data set: Antiproliferative assay, A-549. It is filed as cell-based. The note with it: Homo sapiens, A549; read-out: Antiproliferative activity IC50 ± SEM, A-549.
Text: as §2, §3

Data set [7] has as its system MCF-7 (breast cancer cell line). Nature of the data set: Antiproliferative assay, MCF-7. Particulars: Homo sapiens, MCF7; read-out: Antiproliferative activity IC50 ± SEM, MCF-7. It is filed as cell-based.
Text: as §2, §3

Data set [8] can be described thus: Cell viability assay (MTT) on normal cell line.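 Also: values are percent cell viability not percent inhibition.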 It counts as cell-based. Particulars: human, MCF-10A mammary epithelial cells, 50 µM of compound. As to the method: To study the effect of 4a-l and 5a-c on normal cell lines, a cell viability assay was done using the MCF-10A (human mammary gland epithelial) cell line ([Abdelbaset et al., 2019]; [Al-Wahaibi et al., 2020]). This study uses a concentration of 50 µM of the investigated compound for 4 days, after which cell viability is evaluated.
To study the effect of 4a-l and 5a-c on normal cell lines, a cell viability assay was done using the MCF-10A (human mammary gland epithelial) cell line ([Abdelbaset et al., 2019]; [Al-Wahaibi et al., 2020]). See Supplementary Appendix S1A.
MTT assay was carried out to study the effect of compounds on mammary epithelial cells (MCF-10A). The medium in which cells were propagated contained Dulbecco's modified Eagle's medium (DMEM)/ Ham's F-12 medium (1:1) supplemented with epidermal growth factor (20 ng/mL), hydrocortisone (500 ng/mL), insulin (10 μg/mL), 2 mM glutamine and 10% fetal calf serum. After every 2-3 days, the cells were passaged using trypsin ethylenediamine tetra acetic acid (EDTA). The cells were seeded at a density of 10^4 cells mL^-1 in flat-bottomed culture plates containing 96 wells each. After 24 h, medium was removed from the plates and the compounds in (in 0.1% DMSO) were added (in 200 μL medium to yield a final concentration of 0.1% v/v) to the wells of plates. A single compound was designated with four wells followed by incubation of plates for 96h at 37°C. After incubation, medium was removed completely from the plates followed by addition of MTT (0.4 mg/mL in medium) to each well and subsequent incubation of plates for 3h. MTT (along with the medium) was removed and DMSO (150μL) was added to each well of the culture plates, followed by vortexing and subsequent measurement of absorbance (at 540 nm) using microplate reader. The data are shown as percentage inhibition of proliferation in comparison with controls containing 0.1% DMSO.

Broadly, the inhibition is how much of the control response was suppressed. A word on the IC50: it is the midpoint of a concentration-inhibition curve. Broadly, the melting point is the temperature, or range, at which the solid turns liquid. For orientation: viability means the share of living cells, or the viability signal relative to a control. Low readings indicate more harm to the cells, high ones less harm to the cells. Compound `Cc1ccc2[nH]c(=O)cc(/N=C(\C3CCCC3)N3CCCCC3)c2c1` [Compound 4b, (E) 4-((Cyclopentyl(piperidin-1-yl)methylene)amino)-6-methylquinolin-2(1H)-one] had a melting point of 222 °C. Also, in data set [1], the inhibition at 20 µM was 29.6% and the inhibition at 100 µM came out at 65.9%. In [2], this compound gave an inhibition at 20 µM of 22.3% and an inhibition at 100 µM of 57.2%. In [3], the IC50 is 1.5 ± 0.1 µM. For the same compound, the IC50 in data set [4] was 1.5 µM. For the same compound, the IC50 in data set [5] worked out at 1.6 ± 0.1 µM. In addition, in data set [6], the IC50 was found to be 1.5 ± 0.1 µM. Besides, the IC50 in data set [7] worked out at 1.4 ± 0.1 µM. Also, in data set [8], the viability at 4 days, 50 µM turned out to be 92%.
Take `O=c1cc(/N=C(\C2CCCC2)N2CCCCC2)c2cc(Cl)ccc2[nH]1` [Compound 4d, (E) 4-((Cyclopentyl(piperidin-1-yl)methylene)amino)-6-chloroquinolin-2(1H)-one]: the melting point was determined as 248 °C. Further, in data set [1], the inhibition at 20 µM was 34.7% and the inhibition at 100 µM is 71.6%. In data set [2], this compound had an inhibition at 20 µM of 21.7% and an inhibition at 100 µM of 54.2%. For the same compound, the IC50 in data set [3] amounted to 1.3 ± 0.1 µM. For the same compound, the IC50 in data set [4] is 1.35 µM. Besides, the IC50 in [5] was determined as 1.4 ± 0.1 µM. The half-maximal inhibitory concentration (IC50) in [6] was found to be 1.5 ± 0.1 µM. Besides, in [7], the IC50 came to 1.2 ± 0.1 µM. Moreover, the viability at 4 days, 50 µM in data set [8] was 92%.
On to `Cc1cccc2c(/N=C(\C3CCCC3)N3CCCCC3)cc(=O)[nH]c12` [Compound 4e, (E) 4-((Cyclopentyl(piperidin-1-yl)methylene)amino)-8-methylquinolin-2(1H)-one], for which the melting point worked out at 184 °C. Also, in data set [1], the inhibition at 20 µM worked out at 39.1% and the inhibition at 100 µM was 81.4%. Moreover, in [2], the inhibition at 20 µM was 25.6% and at 100 µM the inhibition was 60.4%. In addition, in data set [3], the IC50 is 1.2 ± 0.1 µM. In addition, the concentration for half-maximal inhibition (IC50) in [4] worked out at 1.2 µM. For the same compound, the IC50 in data set [5] is 1.2 ± 0.1 µM. Further, the half-maximal inhibitory concentration (IC50) in data set [6] came out at 1.3 ± 0.1 µM. Also, the IC50 in data set [7] stood at 1.1 ± 0.1 µM. The compound further displayed a viability at 4 days, 50 µM in data set [8] of 90%.
In turn, `COc1ccc2[nH]c(=O)cc(/N=C(\C3CCCC3)N3CCOCC3)c2c1` [Compound 4i, (E) 4-((Cyclopentyl(morpholino)methylene)amino)-6-methoxyquinolin-2(1H)-one] yielded a melting point of 247 °C. Also, in [1], the inhibition at 20 µM stood at 37.2% and the inhibition at 100 µM is 74.9%. For the same compound, in [2], 20 µM produced 23.1% inhibition and the inhibition at 100 µM came out at 56.7%. For the same compound, the IC50 in [3] was determined as 1.6 ± 0.2 µM. For the same compound, in data set [4], the IC50 came to 1.3 µM. Moreover, the IC50 in [5] turned out to be 1.2 ± 0.2 µM. In [6], the IC50 amounted to 1.1 ± 0.2 µM. Also, in data set [7], the IC50 worked out at 1.4 ± 0.2 µM. The compound also returned a viability at 4 days, 50 µM in data set [8] of 89%.
`Cn1c(=O)cc(/N=C(\C2CCCC2)N2CCN(/C(=N/c3cc(=O)n(C)c4ccccc34)C3CCCC3)CC2)c2ccccc21` [Compound 5c, 4,4'-((1E,1′E)-(piperazine-1,4-diylbis(cyclopentylmethanylylidene))bis(azanylylid-ene))bis(1-methylquinolin-2(1H)-one)] had a melting point of 342 °C. In [1], the inhibition at 20 µM stood at 46.7% and the inhibition at 100 µM was 84.8%. This compound also showed an inhibition at 100 µM in data set [2] of 23.8%. In addition, in data set [3], the IC50 turned out to be 0.9 ± 0.1 µM. In addition, the IC50 in data set [4] amounted to 1 µM. Further, the 50% inhibitory concentration (IC50) in [5] turned out to be 1.1 ± 0.1 µM. Besides, in data set [6], the 50% inhibitory concentration (IC50) was found to be 1.1 ± 0.1 µM. Moreover, the IC50 in data set [7] was 0.8 ± 0.1 µM. In addition, the viability at 4 days, 50 µM in data set [8] was 89%.
For the compound `COc1cc([C@@H]2c3cc4c(cc3[C@@H](O[C@@H]3O[C@@H]5CO[C@@H](C)O[C@H]5[C@H](O)[C@H]3O)[C@H]3COC(=O)[C@H]23)OCO4)cc(OC)c1O` [Etoposide, reference compound], in data set [2], 20 µM produced 66% inhibition and the inhibition at 100 µM was found to be 83.7%.
